From article PMC9038795, “Deletion and tandem duplications of biosynthetic genes drive the diversity of triterpenoids in Aralia elata” (Nature Communications, 2022)

What was measured:
Assay in all cases: HPLC-MS kinetic assay
Type in all cases: biochemical, Aralia elata
Conditions in all cases: 0.5 mM UDP-Glc, 50 mM Tris-HCl pH 7.0, 30 °C, 1 µM enzyme
AeUGT73AD2 = test system: T1, AeUGT73AD2
T1 construct: pGEX-4T-1, GST-tagged, E. coli BL21 (DE3), GSTrap purified

AeUGT74AG6 = test system: T2, AeUGT74AG6
T2 construct: pGEX-4T-1, GST-tagged, E. coli BL21 (DE3), GSTrap purified

AeUGT73CB3 = test system: T3, AeUGT73CB3
T3 construct: pGEX-4T-1, GST-tagged, E. coli BL21 (DE3), GSTrap purified; methods print AeUGT74CB3
Protocol: HPLC-MS kinetic assay on AeUGT73CB3 | The kinetic parameters of AeUGT73CB3 for calenduloside E and chikusetsusaponin IVa as substrates were analyzed.

Km (AeUGT73AD2) [µM]	Km (AeUGT74AG6) [µM]	Km (AeUGT73CB3) [µM]	SMILES
43 ± 9.17	40.3 ± 2.49		CC1(C)CC[C@]2(C(=O)O)CC[C@]3(C)C(=CC[C@@H]4[C@@]5(C)CC[C@H](O)C(C)(C)[C@@H]5CC[C@]43C)[C@@H]2C1 [compound 2, oleanolic acid]
	150 ± 7.7	51.8 ± 2.1	CC1(C)CC[C@]2(C(=O)O)CC[C@]3(C)C(=CC[C@@H]4[C@@]5(C)CC[C@H](O[C@@H]6O[C@H](C(=O)O)[C@@H](O)[C@H](O)[C@H]6O)C(C)(C)[C@@H]5CC[C@]43C)[C@@H]2C1 [compound 7, calenduloside E]
	48.8 ± 3.04		CC1(C)CC[C@]2(C(=O)O)CC[C@]3(C)C(=CC[C@@H]4[C@@]5(C)CC[C@H](O[C@@H]6O[C@H](C(=O)O)[C@@H](O)[C@H](O)[C@H]6O[C@@H]6O[C@H](CO)[C@@H](O)[C@H](O)[C@H]6O)C(C)(C)[C@@H]5CC[C@]43C)[C@@H]2C1 [compound 8, zingibroside R1]
		640.2 ± 4.6	CC1(C)CC[C@]2(C(=O)O[C@@H]3O[C@H](CO)[C@@H](O)[C@H](O)[C@H]3O)CC[C@]3(C)C(=CC[C@@H]4[C@@]5(C)CC[C@H](O[C@@H]6O[C@H](C(=O)O)[C@@H](O)[C@H](O)[C@H]6O)C(C)(C)[C@@H]5CC[C@]43C)[C@@H]2C1 [compound 9, chikusetsusaponin IVa]
